Measured values taken from patent US20230085307A1, “PYRIDAZINONE COMPOUND AND HERBICIDE” (NISSAN CHEMICAL CORPORATION, priority 2019, published 2023).

Experiments:
chickweed = assay: Test Example 4: herbicidal effect by soil treatment (Table 19, symbol P); type: in vivo, common chickweed (Stellaria media)
How it was run: (§1)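 Applied as a water-diluted emulsion, the compound was sprayed onto soil covering newly sown seeds. Evaluation came three weeks after application, in a greenhouse held at 25° C. to 30° C.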

redroot pigweed = assay: Test Example 4: herbicidal effect by soil treatment (Table 19, symbol N); type: in vivo, redroot pigweed (Amaranthus retroflexus)
How it was run: as §1

velvetleaf [1] = assay: Test Example 4: herbicidal effect by soil treatment (Table 19, symbol M); type: in vivo, velvetleaf (Abutilon theophrasti)
How it was run: as §1

Italian ryegrass [2] = assay: Test Example 5: herbicidal effect by foliage application, plastic box (Table 20, symbol K); type: in vivo, Italian ryegrass (Lolium multiflorum); conditions: foliage application, three weeks after application
How it was run: (§2)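 Sow seeds spot-wise in sterilized diluvial soil; cover with ~1.5 cm soil. Grow 14 days in greenhouse, 25° C. to 30° C. Spray foliage with emulsion diluted to predetermined amount. Rate effect after 3 weeks.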

velvetleaf [3] = assay: Test Example 5: herbicidal effect by foliage application, plastic box (Table 20, symbol M); type: in vivo, velvetleaf (Abutilon theophrasti); conditions: foliage application, three weeks after application
How it was run: as §2

southern crabgrass [4] = assay: Test Example 5: herbicidal effect by foliage application, plastic box (Table 20, symbol F); type: in vivo, southern crabgrass (Digitaria ciliaris); conditions: foliage application, three weeks after application
How it was run: as §2

blackgrass [5] = assay: Test Example 4: herbicidal effect by soil treatment (Table 19, symbol J); type: in vivo, blackgrass (Alopecurus myosuroides)
How it was run: as §1

green foxtail [6] = assay: Test Example 4: herbicidal effect by soil treatment (Table 19, symbol G); type: in vivo, green foxtail (Setaria viridis)
How it was run: as §1

blackgrass [7] = assay: Test Example 5: herbicidal effect by foliage application, plastic box (Table 20, symbol J); type: in vivo, blackgrass (Alopecurus myosuroides); conditions: foliage application, three weeks after application
How it was run: as §2

Chinese sprangletop = assay: Test Example 3: herbicidal effect by foliage application, Wagner pot (Table 18, symbol D); type: in vivo, chinese sprangletop (Leptochloa chinensis)
How it was run: (§3)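 Plants were sown in alluvial soil held under 0.1–0.5 cm standing water and grown 14 days in a greenhouse at 25–30 °C. An emulsifiable formulation, water-diluted to the set dose, was then sprayed onto the foliage, and effects were scored three weeks later using previously defined criteria.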

wild oat [8] = assay: Test Example 4: herbicidal effect by soil treatment (Table 19, symbol I); type: in vivo, wild oat (Avena fatua)
How it was run: as §1

barnyard grass [9] = assay: Test Example 5: herbicidal effect by foliage application, plastic box (Table 20, symbol H); type: in vivo, barnyard grass (Echinochloa crus-galli); conditions: foliage application, three weeks after application
How it was run: as §2

windgrass [10] = assay: Test Example 5: herbicidal effect by foliage application, plastic box (Table 20, symbol L); type: in vivo, windgrass (Apera spica-venti); conditions: foliage application, three weeks after application
How it was run: as §2

southern crabgrass [11] = assay: Test Example 4: herbicidal effect by soil treatment (Table 19, symbol F); type: in vivo, southern crabgrass (Digitaria ciliaris)
How it was run: as §1

barnyard grass [12] = assay: Test Example 3: herbicidal effect by foliage application, Wagner pot (Table 18, symbol H); type: in vivo, barnyard grass (Echinochloa crus-galli)
How it was run: as §3

windgrass [13] = assay: Test Example 4: herbicidal effect by soil treatment (Table 19, symbol L); type: in vivo, windgrass (Apera spica-venti)
How it was run: as §1

Italian ryegrass [14] = assay: Test Example 4: herbicidal effect by soil treatment (Table 19, symbol K); type: in vivo, Italian ryegrass (Lolium multiflorum)
How it was run: as §1

rice flat sedge = assay: Test Example 3: herbicidal effect by foliage application, Wagner pot (Table 18, symbol E); type: in vivo, rice flat sedge (Cyperus iria)
How it was run: as §3

lambsquarters [15] = assay: Test Example 4: herbicidal effect by soil treatment (Table 19, symbol O); type: in vivo, lambsquarters (Chenopodium album)
How it was run: as §1

wild oat [16] = assay: Test Example 5: herbicidal effect by foliage application, plastic box (Table 20, symbol I); type: in vivo, wild oat (Avena fatua); conditions: foliage application, three weeks after application
How it was run: as §2

barnyard grass [17] = assay: Test Example 4: herbicidal effect by soil treatment (Table 19, symbol H); type: in vivo, barnyard grass (Echinochloa crus-galli)
How it was run: as §1

persian speedwell [18] = assay: Test Example 5: herbicidal effect by foliage application, plastic box (Table 20, symbol R); type: in vivo, Persian speedwell (Veronica persica); conditions: foliage application, three weeks after application
How it was run: as §2

late watergrass = assay: Test Example 1: herbicidal activity, application before weed generation under submerged conditions (Table 16, symbol A); type: in vivo, late watergrass (Echinochloa oryzicola)
How it was run: (§4)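 Emulsion formulation, water-diluted to set dose, was put onto the flooded surface (4 cm depth, alluvial soil) the same day weeds were sown and 2.5-leaf rice transplanted. After 3 weeks at 25-30 °C under glass, each species was rated 0 (≤5% kill) to 5 (≥90% kill).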

green foxtail [19] = assay: Test Example 5: herbicidal effect by foliage application, plastic box (Table 20, symbol G); type: in vivo, green foxtail (Setaria viridis); conditions: foliage application, three weeks after application
How it was run: as §2

lambsquarters [20] = assay: Test Example 5: herbicidal effect by foliage application, plastic box (Table 20, symbol O); type: in vivo, lambsquarters (Chenopodium album); conditions: foliage application, three weeks after application
How it was run: as §2

Japanese bulrush = assay: Test Example 1: herbicidal activity, application before weed generation under submerged conditions (Table 16, symbol B); type: in vivo, Japanese bulrush (Schoenoplectus juncoides)
How it was run: as §4

persian speedwell [21] = assay: Test Example 4: herbicidal effect by soil treatment (Table 19, symbol R); type: in vivo, Persian speedwell (Veronica persica)
How it was run: as §1

oval-leafed pondweed = assay: Test Example 1: herbicidal activity, application before weed generation under submerged conditions (Table 16, symbol C); type: in vivo, oval-leafed pondweed (Monochoria vaginalis)
How it was run: as §4

[22] = amount of applied herbicide 344 g/ha
[23] = amount of applied herbicide 320 g/ha

CCCC(=O)Oc1c(C)nn(C)c(=O)c1-c1c(-c2ccc(F)cc2OC)sc2cc(OC)c(Cl)cc12 [5-076]
P: chickweed, herbicidal effect grade (chickweed; [22]): 0 (Herbicidal rate of 5% or less (almost no effect))
N: redroot pigweed, herbicidal effect grade (redroot pigweed; [22]): 4 (Herbicidal rate of 70% or more and less than 90%)
M: velvetleaf, herbicidal effect grade (velvetleaf [1]; [22]): 1 (Herbicidal rate of 5% or more and less than 20%)
herbicidal effect on Italian ryegrass (K) (Italian ryegrass [2]; 344 g/ha): 0 (Herbicidal rate of 5% or less (almost no effect))
herbicidal effect on velvetleaf (M) (velvetleaf [3]; 344 g/ha): 3 (Herbicidal rate of 40% or more and less than 70%)
herbicidal effect on southern crabgrass (F) (southern crabgrass [4]; 344 g/ha): 1 (Herbicidal rate of 5% or more and less than 20%)
J: blackgrass, herbicidal effect grade (blackgrass [5]; [22]): 0 (Herbicidal rate of 5% or less (almost no effect))
G: green foxtail, herbicidal effect grade (green foxtail [6]; [22]): 3 (Herbicidal rate of 40% or more and less than 70%)
herbicidal effect on blackgrass (J) (blackgrass [7]; 344 g/ha): 1 (Herbicidal rate of 5% or more and less than 20%)
herbicidal effect on Chinese sprangletop (D) (Chinese sprangletop; 344 g/ha): 0 (Herbicidal rate of 5% or less (almost no effect))
I: wild oat, herbicidal effect grade (wild oat [8]; [22]): 0 (Herbicidal rate of 5% or less (almost no effect))
herbicidal effect on barnyard grass (H) (barnyard grass [9]; 344 g/ha): 3 (Herbicidal rate of 40% or more and less than 70%)
herbicidal effect on windgrass (L) (windgrass [10]; 344 g/ha): 3 (Herbicidal rate of 40% or more and less than 70%)
F: southern crabgrass, herbicidal effect grade (southern crabgrass [11]; [22]): 3 (Herbicidal rate of 40% or more and less than 70%)
herbicidal effect on barnyard grass (H) (barnyard grass [12]; 344 g/ha): 5 (Herbicidal rate of 90% or more (almost completely withered))
L: windgrass, herbicidal effect grade (windgrass [13]; [22]): 0 (Herbicidal rate of 5% or less (almost no effect))
K: Italian ryegrass, herbicidal effect grade (Italian ryegrass [14]; [22]): 0 (Herbicidal rate of 5% or less (almost no effect))
herbicidal effect on rice flat sedge (E) (rice flat sedge; 344 g/ha): 0 (Herbicidal rate of 5% or less (almost no effect))
O: lambsquarters, herbicidal effect grade (lambsquarters [15]; [22]): 3 (Herbicidal rate of 40% or more and less than 70%)
herbicidal effect on wild oat (I) (wild oat [16]; 344 g/ha): 0 (Herbicidal rate of 5% or less (almost no effect))
H: barnyard grass, herbicidal effect grade (barnyard grass [17]; [22]): 1 (Herbicidal rate of 5% or more and less than 20%)
herbicidal effect on persian speedwell (R) (persian speedwell [18]; 344 g/ha): 0 (Herbicidal rate of 5% or less (almost no effect))
Herbicidal effect, A: late watergrass (late watergrass; [22]): 2 (Herbicidal rate of 20% or more and less than 40%)
herbicidal effect on green foxtail (G) (green foxtail [19]; 344 g/ha): 4 (Herbicidal rate of 70% or more and less than 90%)
herbicidal effect on lambsquarters (O) (lambsquarters [20]; 344 g/ha): 4 (Herbicidal rate of 70% or more and less than 90%)
Herbicidal effect, B: Japanese bulrush (Japanese bulrush; [22]): 0 (Herbicidal rate of 5% or less (almost no effect))
R: persian speedwell, herbicidal effect grade (persian speedwell [21]; [22]): 0 (Herbicidal rate of 5% or less (almost no effect))
Herbicidal effect, C: oval-leafed pondweed (oval-leafed pondweed; [22]): 1 (Herbicidal rate of 5% or more and less than 20%)

Cc1nn(C)c(=O)c(-c2c(-c3ccc(Cl)cc3)oc3ccc(F)cc23)c1O [9-016]
P: chickweed, herbicidal effect grade (chickweed; [23]): 3 (Herbicidal rate of 40% or more and less than 70%)
N: redroot pigweed, herbicidal effect grade (redroot pigweed; [23]): 5 (Herbicidal rate of 90% or more (almost completely withered))
M: velvetleaf, herbicidal effect grade (velvetleaf [1]; [23]): 1 (Herbicidal rate of 5% or more and less than 20%)
herbicidal effect on Italian ryegrass (K) (Italian ryegrass [2]; 320 g/ha): 5 (Herbicidal rate of 90% or more (almost completely withered))
herbicidal effect on velvetleaf (M) (velvetleaf [3]; 320 g/ha): 5 (Herbicidal rate of 90% or more (almost completely withered))
herbicidal effect on southern crabgrass (F) (southern crabgrass [4]; 320 g/ha): 4 (Herbicidal rate of 70% or more and less than 90%)
J: blackgrass, herbicidal effect grade (blackgrass [5]; [23]): 0 (Herbicidal rate of 5% or less (almost no effect))
G: green foxtail, herbicidal effect grade (green foxtail [6]; [23]): 4 (Herbicidal rate of 70% or more and less than 90%)
herbicidal effect on blackgrass (J) (blackgrass [7]; 320 g/ha): 4 (Herbicidal rate of 70% or more and less than 90%)
Herbicidal effect on D (Chinese sprangletop), foliage application (Chinese sprangletop; [23]): 5 (Herbicidal rate of 90% or more (almost completely withered))
I: wild oat, herbicidal effect grade (wild oat [8]; [23]): 2 (Herbicidal rate of 20% or more and less than 40%)
herbicidal effect on barnyard grass (H) (barnyard grass [9]; 320 g/ha): 5 (Herbicidal rate of 90% or more (almost completely withered))
herbicidal effect on windgrass (L) (windgrass [10]; 320 g/ha): 4 (Herbicidal rate of 70% or more and less than 90%)
F: southern crabgrass, herbicidal effect grade (southern crabgrass [11]; [23]): 3 (Herbicidal rate of 40% or more and less than 70%)
Herbicidal effect on H (barnyard grass), foliage application (barnyard grass [12]; [23]): 5 (Herbicidal rate of 90% or more (almost completely withered))
L: windgrass, herbicidal effect grade (windgrass [13]; [23]): 4 (Herbicidal rate of 70% or more and less than 90%)
K: Italian ryegrass, herbicidal effect grade (Italian ryegrass [14]; [23]): 4 (Herbicidal rate of 70% or more and less than 90%)
Herbicidal effect on E (rice flat sedge), foliage application (rice flat sedge; [23]): 4 (Herbicidal rate of 70% or more and less than 90%)
O: lambsquarters, herbicidal effect grade (lambsquarters [15]; [23]): 4 (Herbicidal rate of 70% or more and less than 90%)
herbicidal effect on wild oat (I) (wild oat [16]; 320 g/ha): 4 (Herbicidal rate of 70% or more and less than 90%)
H: barnyard grass, herbicidal effect grade (barnyard grass [17]; [23]): 4 (Herbicidal rate of 70% or more and less than 90%)
herbicidal effect on persian speedwell (R) (persian speedwell [18]; 320 g/ha): 5 (Herbicidal rate of 90% or more (almost completely withered))
Herbicidal effect, A: late watergrass (late watergrass; [23]): 3 (Herbicidal rate of 40% or more and less than 70%)
herbicidal effect on green foxtail (G) (green foxtail [19]; 320 g/ha): 5 (Herbicidal rate of 90% or more (almost completely withered))
herbicidal effect on lambsquarters (O) (lambsquarters [20]; 320 g/ha): 5 (Herbicidal rate of 90% or more (almost completely withered))
Herbicidal effect, B: Japanese bulrush (Japanese bulrush; [23]): 0 (Herbicidal rate of 5% or less (almost no effect))
R: persian speedwell, herbicidal effect grade (persian speedwell [21]; [23]): 5 (Herbicidal rate of 90% or more (almost completely withered))
Herbicidal effect, C: oval-leafed pondweed (oval-leafed pondweed; [23]): 0 (Herbicidal rate of 5% or less (almost no effect))
